Test results reported in paper PMC6052345, “Functional Analysis of the Chemosensory Protein MsepCSP8 From the Oriental Armyworm Mythimna separata” (Frontiers in Physiology, 2018).
pIC50, pKi: −log10 of the molar value.

Legend:
[1] = target: MsepCSP8 (Mythimna separata, UniProt A0A1V1WC03); assay: Fluorescence competitive binding assay with 1-NPN as fluorescent probe; settings: for pIC50: displacement of 1-NPN; for pKi: Ki, calculated from IC50; for binding affinity to MsepCSP8 in words: discussion of Table 1, pH not stated
Sequence of MsepCSP8 (A0A1V1WC03 entry or part of it): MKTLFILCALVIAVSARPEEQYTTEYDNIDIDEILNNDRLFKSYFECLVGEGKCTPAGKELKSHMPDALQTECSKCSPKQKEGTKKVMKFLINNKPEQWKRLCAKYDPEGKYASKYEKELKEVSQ
Procedure: The expressed protein was obtained in soluble form in the supernatant, and purification was accomplished using a Ni affinity chromatography column (GE Healthcare, Uppsala, Sweden). Bound protein was eluted by digestion with recombinant bovine enterokinase at 26°C for 15 h to remove the His-tag. Expression and purification were verified by 15% sodium dodecyl sulfate-polyacrylamide gel electrophoresis (SDS-PAGE), and protein concentration was measured as described by [Cao et al. (2017)]. Dialysis of purified protein was carried out in 30 mM Tris-HCl buffer [Tris(hydroxymethyl)aminomethane] at pH 7.4 and pH 5.0 before fluorescence binding assays, and protein was stored at -80°C until use.
Fluorescence competitive binding assays were performed to determine the binding affinity of MsepCSP8 for 56 ligands using N-phenyl-1-naphthylamine (1-NPN) as a fluorescent probe. Stock solutions of ligands were prepared in spectrophotometric-grade methanol. […] Mixtures of 1-NPN and protein were excited at 337 nm wavelength, and emission spectra were recorded from 360 to 600 nm using a fluorescence spectrophotometer (RF-5301PC Shimadzu, Kyoto, Japan). Binding of selected ligands with MsepCSP8 (1:1 protein:ligand stoichiometry) was evaluated using 1-NPN as a fluorescent probe, with the final concentration of the product ranging from 0 to 20 μM. […] Three independent measurements were made for all experiments. The binding affinity (Ki) of MsepCSP8 for all tested ligands was calculated based on IC50 values as follows:
Ki=IC50/(1 + [1−NPN]/K1–NPN)
where [1-NPN] is the free concentration of 1-NPN, and K1-NPN is the dissociation constant of the complex of MsepCSP8 and 1-NPN.

[2] = tested on: Mythimna separata; assay: Y-tube olfactometer bioassay (before RNAi); format: in vivo; settings: for behavioral response in words: male and female moths; for behavioral response (attraction) of females: 3-day-old female moths; for behavioral response (attraction) of females / behavioral response (attraction) of males: 10 μl volatile vs liquid paraffin; for behavioral response (attraction) of males: 3-day-old male moths
Description: Mythimna separata behavioral responses were examined by olfactometer bioassays ([Cao et al., 2015]) performed in a glass Y-tube (base = 4.0 cm diameter by 25 cm length, arms = 3.0 cm diameter by 26 cm length) using 10 different volatile compounds (Sigma-Aldrich).
Air entering the tube was passed through activated charcoal for filtration and humidified using deionised water. Filtered air was split between two chambers; one chamber containing liquid paraffin (used as control) and the other containing the test volatile. Each chamber was connected to one arm of the Y-tube. Airflow was kept constant at 6.0 l min^-1 throughout the experiment using an inline flow meter (Gilmont Instr., Barnant Co., Barrington, IL, United States). Orange light was used for this experiment. The whole experiment was conducted in a dark room, and the relative humidity and temperature were maintained at 70 ± 5% and 25 ± 1°C, respectively. A 10 μl of volatile compound was applied to 10 mm × 10 mm filter papers (Whatman No. 1) that was placed in the chamber connected to one arm of the Y-tube. A separate Y-tube was used for male and female moths.
To perform bioassays, a 3-day-old moth, either male or female, was released in the base of the Y-tube. Each insect was given 10 min to respond to the treatment, and the number of moths showing attraction, repulsion or no response was counted. Approximately 30 min before onset of the trial, male and female adults were placed into separate glass tubes (50 ml) and covered with a cotton plug to avoid exposure to tested volatiles. In total, 60 adults (30 male and 30 female) were tested per volatile compound, and χ^2 tests were applied to evaluate the number of M. separata individuals attracted to or repelled by volatiles.

[3] = tested on: Mythimna separata; assay: Y-tube olfactometer bioassay after dsMsepCSP8 injection; format: in vivo; settings: males and females, 3 days post-eclosion
Procedure: The dsRNA (500 nl of 10 ng nl^-1) was injected into 3rd and 4th abdominal segment of 7-day old pupae using a microinjector (World Precision Instruments Inc., Sarasota, FL, United States) under a microscope. After injection, pupae were kept in petri dishes until eclosion at 25 ± 1°C and 70 ± 5% relative humidity. Three treatments were set up for RNAi consisting of non-injected (controls), dsGFP-injected and dsRNA-injected (dsMsepCSP8) groups. After eclosion, adults from each treatment were kept in separate containers. Three individuals of each sex from all three treatments were taken at 1, 2, 3, 4, and 5 days post-eclosion for RNAi analysis. RT-qPCR was performed using the method described above.
Y-tube bioassays were performed both before and after RNAi application to confirm the MsepCSP8 gene silencing effect. Three treatments consisting of dsGFP-injected, dsRNA-injected (dsMsepCSP8), and controls were tested on both 3-day old male and female moths.

Row | SMILES | pIC50 ([1]; IC50, pH 5.0) | pIC50 ([1]; IC50, pH 7.4) | pKi ([1]; pH 5.0) | pKi ([1]; pH 7.4) | binding affinity to MsepCSP8 in words [1] | behavioral response in words [2] | behavioral response (attraction) of females [2] [%] | behavioral response (attraction) of males [2] [%] | behavioral responses of adults after dsMsepCSP8 injection [3]
1 | C=CC(O)CC (centres unmarked) [1-Penten-3-ol] | 4.65 | 5.03 | 4.78 | 5.19 | bound strongly | distinct preference | – | – | –
2 | CCCCCCCCCCCC(C)=O [2-Tridecanone] | 5.11 | 5.04 | 5.24 | 5.20 | high affinity | non-significant attraction | – | – | –
3 | CCCCCC=O [Hexanal] | – | – | – | – | – | – | 73.33 | 70 | not significantly affect
4 | CCC/C=C/C=O [Trans-2-hexenal] | 5.05 | 4.90 | 5.18 | 5.06 | high affinities | non-significant response | – | – | –

More lines, main results first:

Row | pIC50 ([1]; IC50, pH 5.0) | pIC50 ([1]; IC50, pH 7.4) | pKi ([1]; pH 5.0) | pKi ([1]; pH 7.4) | binding affinity to MsepCSP8 in words [1] | SMILES | behavioral response in words [2] | behavioral response (attraction) of females [2] [%] | behavioral response (attraction) of males [2] [%] | behavioral responses of adults after dsMsepCSP8 injection [3]
5 | 5.02 | 4.86 | 5.15 | 5.01 | high binding affinities | CC1=CCC(O)(C(C)C)CC1 (single isomer, unassigned; (-)) [(–)-Terpinen-4-ol] | repelled | – | – | –
6 | 4.86 | 5.01 | 4.99 | 5.16 | high affinities | CCCCCCCC=O [Octanal] | non-significant response | – | – | –
7 | 4.57 | 5.05 | 4.70 | 5.21 | high binding affinities | CC1=CCC(=C(C)C)CC1 [Terpinolene] | – | 80 | 90 | not significantly affect
